Assay results reported in ChEMBL document CHEMBL3779844, “Biocatalyzed synthesis of difuranosides and their ability to trigger production of TNF-α” (2016).
The source made the active and inactive calls. The calls are words filed in the database; no cut-off is given here.

Test system: RAW264.7
Experiment: Immunomodulatory activity in mouse RAW264.7 cells assessed as increase in TNF alpha production after 18 hrs by ELISA method (reference value: 4.4 +/- 3.4 pg/ml)
Format: functional

SMILES | Activity [pg/mL]
CCCCCCCCO[C@@H]1O[C@@H]([C@H](O)CF)[C@H](O)[C@H]1O[C@@H]1O[C@@H]([C@H](O)CF)[C@H](O)[C@H]1O | 600

Test system: RAW264.7
Experiment: Immunomodulatory activity in mouse RAW264.7 cells assessed as TNF alpha production at 1 to 1000 ng/ml after 18 hrs by ELISA method (reference value: 4.4 +/- 3.4 pg/ml)
Format: functional

SMILES | Activity [pg/mL]
O=[N+]([O-])c1ccc(O[C@@H]2O[C@@H]([C@H](O)CF)[C@H](O)[C@H]2O[C@@H]2O[C@@H]([C@H](O)CF)[C@H](O)[C@H]2O)cc1 | >200

Test system: RAW264.7
Experiment: Immunomodulatory activity in mouse RAW264.7 cells assessed as TNF alpha production at 1 to 1000 ng/ml after 18 hrs by ELISA method
Format: functional, cell-based

SMILES | Activity
O=[N+]([O-])c1ccc(O[C@@H]2O[C@@H]([C@H](O)CO)[C@H](O)[C@H]2O[C@@H]2O[C@@H]([C@H](O)CO)[C@H](O)[C@H]2O[C@@H]2O[C@@H]([C@H](O)CO)[C@H](O)[C@H]2O)cc1 | Active
O=[N+]([O-])c1ccc(O[C@@H]2O[C@@H]([C@H](O)CO)[C@H](O)[C@H]2O[C@@H]2O[C@@H]([C@H](O)CF)[C@H](O)[C@H]2O)cc1 | inactive
O=[N+]([O-])c1ccc(O[C@@H]2O[C@@H]([C@H](O)CO)[C@H](O)[C@H]2O[C@@H]2O[C@@H]([C@H](O)CO)[C@H](O)[C@H]2O)cc1 | Active
CCCCCCCCO[C@@H]1O[C@@H]([C@H](O)CO)[C@H](O)[C@H]1O[C@@H]1O[C@@H]([C@H](O)CO)[C@H](O)[C@H]1O | Active
C[C@@H](O)[C@@H]1O[C@@H](OC[C@@H](O)[C@@H]2O[C@@H](Oc3ccc([N+](=O)[O-])cc3)[C@H](O)[C@H]2O)[C@H](O)[C@H]1O | inactive
CCCCCCCCO[C@H]1O[C@H]([C@@H](O)CO)[C@@H](O)[C@@H]1O[C@@H]1O[C@@H]([C@@H](O)CO)[C@H](O)[C@H]1O[C@@H]1O[C@@H]([C@@H](O)CO)[C@H](O)[C@H]1O (stereo in doubt) | Active
O=[N+]([O-])c1ccc(O[C@@H]2O[C@@H]([C@H](O)CO[C@@H]3O[C@@H]([C@H](O)CF)[C@H](O)[C@H]3O)[C@H](O)[C@H]2O)cc1 | inactive
CCCCCCCCO[C@@H]1O[C@@H]([C@H](O)CO)[C@H](O)[C@H]1O[C@@H]1O[C@@H]([C@H](O)CO)[C@H](O)[C@H]1O[C@H]1O[C@H]([C@H](O)CO)[C@@H](O)[C@@H]1O[C@@H]1O[C@@H]([C@@H](O)CO)[C@H](O)[C@H]1O[C@H]1O[C@H]([C@@H](O)CO)[C@@H](O)[C@@H]1O (stereo in doubt) | Active
CCCCCCCCO[C@@H]1O[C@@H]([C@H](O)CO[C@@H]2O[C@@H]([C@H](O)CO)[C@H](O)[C@H]2O)[C@H](O)[C@H]1O | Active
CCCCCCCCO[C@@H]1O[C@@H]([C@H](O)CO)[C@H](O)[C@H]1O[C@H]1O[C@H]([C@@H](O)CO)[C@@H](O)[C@@H]1O[C@@H]1O[C@@H]([C@@H](O)CO)[C@H](O)[C@H]1O[C@@H]1O[C@@H]([C@@H](O)CO)[C@H](O)[C@H]1O (stereo in doubt) | Active
C[C@@H](O)[C@@H]1O[C@@H](O[C@H]2[C@H](O[C@H]3[C@H](Oc4ccc([N+](=O)[O-])cc4)O[C@@H]([C@H](O)CO)[C@@H]3O)O[C@@H]([C@@H](C)O)[C@@H]2O)[C@H](O)[C@H]1O | Active
C[C@@H](O)[C@@H]1O[C@@H](O[C@@H]2[C@@H](O)[C@H](Oc3ccc([N+](=O)[O-])cc3)O[C@H]2[C@H](O)CO)[C@H](O)[C@H]1O | inactive
C[C@@H](O)[C@@H]1O[C@@H](O[C@H]2[C@H](Oc3ccc([N+](=O)[O-])cc3)O[C@@H]([C@H](O)CO)[C@@H]2O)[C@H](O)[C@H]1O | inactive
C[C@@H](O)[C@@H]1O[C@@H](O[C@H](CO)[C@@H]2O[C@@H](Oc3ccc([N+](=O)[O-])cc3)[C@H](O)[C@H]2O)[C@H](O)[C@H]1O | inactive
CCCCCCCCO[C@H]1O[C@H]([C@@H](O)CF)[C@@H](O)[C@@H]1O[C@@H]1O[C@@H]([C@@H](O)CO)[C@H](O)[C@H]1O[C@@H]1O[C@@H]([C@@H](O)CO)[C@H](O)[C@H]1O (stereo in doubt) | Active
CCCCCCCCO[C@H]1O[C@H]([C@H](C)O)[C@@H](O)[C@@H]1O[C@@H]1O[C@@H]([C@@H](O)CO)[C@H](O)[C@H]1O[C@@H]1O[C@@H]([C@@H](O)CO)[C@H](O)[C@H]1O (stereo in doubt) | Active
